This note sets out measurements from paper PMC5789847, “Bismuth antimicrobial drugs serve as broad-spectrum metallo-β-lactamase inhibitors” (Nature Communications, 2018).

Structures are written as SMILES. Values joined by “and” are separate entries in the source; they are usually repeats but may differ in a detail not shown here. Identical values can stand only once.

As usually defined, the IC50 is the concentration that gives 50% inhibition. A lower IC50 goes with greater potency in that assay.

Assay [1] concerns IMP-BL21 (IMP-4^+). The assay is described as follows: microbe, parasite or virus in culture. It is filed as cell-based, E. coli. As for the experimental part: (§1) MIC values were determined by standard broth micro-dilution method (Clinical and Laboratory Standards Institute (CLSI) M100-S20, 2010)[64]. Briefly, bacterial cells were cultured in LB broth overnight at 37 °C at 250 rpm and the OD was measured at 600 nm (OD600). The bacterial density was adjusted to about 1 × 10^6 CFU mL^−1 and checked by CFU counting on agar plates afterwards. Tested antibiotics or Bi(III) compounds were added triplicately into individual wells of flat-bottomed 96-well plates and performed 2-fold serial dilution, followed by addition of prepared bacterial inocula. The plate was then incubated at 37 °C for overnight. […] The MIC was determined as the lowest concentration of a drug that could inhibit the growth of microorganism by both visual reading and OD reading at 600 nm using a microtiter plate reader.
(§2) Resulting growth (or lack of growth) was examined after overnight culturing and the lowest concentration that inhibits 99.9% of the original culture was taken as MBC.
(§3) Other procedures were kept strictly the same. […] Synergism was defined when FICI ≤ 0.5, indifference was defined when FICI > 0.5 and < 4, and antagonism was defined when FICI≥4[65]. […] All of the determinations were performed at least in triplicate on different days.

The subject of assay [2] is NDM-HK (NDM-1^+). Nature of the assay: microbe, parasite or virus in culture. The assay is classed as cell-based, E. coli. As for the experimental part:
as §1, §2, §3

The subject of assay [3] is VIM-BL21 (VIM-2^+). Nature of the assay: microbe, parasite or virus in culture. The assay is classed as cell-based, E. coli. As for the experimental part: as §1, §2, §3
Assay [4] concerns NDM-K. pneumonia (NDM-1^+). Nature of the assay: Microdilution MIC/MBC and checkerboard assay. The assay is classed as cell-based, Klebsiella pneumonia. As for the experimental part:
as §1, §2, §3
In general terms: In broth dilution the organism is exposed to a series of concentrations in liquid medium.

The test system of assay [5] is NDM-C. freundii (NDM-1^+). Nature of the assay: Microdilution MIC/MBC and checkerboard assay. The assay is classed as cell-based, Citrobacter freundii. As for the experimental part: as §1, §2, §3
In assay [6] the target is T1, NDM-1 (Klebsiella pneumoniae, UniProt C7C422). The assay is classed as biochemical. The conditions noted are these: NDM-1 50 nM, 1 h preincubation, MER substrate. As for the experimental part:
(§4) Freshly prepared 50 nM of Zn2-NDM-1, Zn2-VIM-2, or Zn2-IMP-4 in 50 mM HEPES/Na pH 7.0, 100 mM NaCl were first incubated with various concentrations of CBS for 1 h at 25 °C, then mixed with equal volume of 0.2 mM MER. The assay was performed in a 1 cm quartz cuvette using the kinetic mode on a Varian Cary50 UV-visible spectrophotometer at 25 °C. The decrease in absorbance at 300 nm due to ring-opening of MER was monitored every second for a duration of 10 min until the reaction was completed. The initial rates were extracted and calculated from each reaction curves for fitting IC50 curves.
Target sequence in this assay (C7C422 29-270, looked up, species assumed): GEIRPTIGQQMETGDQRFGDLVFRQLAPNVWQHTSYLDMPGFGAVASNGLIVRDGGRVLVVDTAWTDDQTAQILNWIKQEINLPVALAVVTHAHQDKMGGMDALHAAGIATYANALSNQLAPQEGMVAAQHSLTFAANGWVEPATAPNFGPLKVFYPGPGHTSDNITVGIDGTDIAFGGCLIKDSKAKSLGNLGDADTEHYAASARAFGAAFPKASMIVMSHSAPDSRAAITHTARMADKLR

Assay [7] addresses VIM-2 (Escherichia coli, UniProt Q5U7L7). It is filed as biochemical. The conditions noted are these: VIM-2 50 nM, 1 h preincubation, MER substrate. As for the experimental part:
as §4

For assay [8], the target named is IMP-4. Nature of the assay: IC50 enzyme inhibition assay. It is filed as biochemical. Conditions: IMP-4 50 nM, 1 h preincubation, MER substrate. As for the experimental part: as §4
The test system of assay [9] is NDM-HK. The assay is described as follows: Time kill assay. The assay is classed as cell-based, E. coli. Conditions: MER 24 µg mL^−1 + Bi(NAC)3 32 µg mL^−1. As for the experimental part:
Time kill assay was used to further explore the synergy between MER and Bi(III) compounds. In a typical assay, NDM-HK was cultured overnight and diluted 1:250 into LB broth at 37 °C for 3 h to reach log phase. The initial bacterial density was adjusted to ~10^7 CFU mL^−1 and then exposed to MER, Bi(III) compounds either alone or in combination. LB broth with no drugs served as a control. Aliquots of bacterial suspension were withdrawn at different time intervals (0, 1, 2, 4, 6, 8, and 24 h) for inspection of bacterial viability by agar plating. The concentrations of the drugs used in the test are 24 µg mL^−1 for MER, 64 µg mL^−1 for CBS, and 32 µg mL^−1 for Bi(NAC)3. Data from three independent experiments were averaged and plotted as log10 CFU mL^−1 vs. time (h) for each time point over 24 h. All assays were triplicated and performed three times on different days.

Assay [10] relates to NDM-HK. Nature of the assay: Resistance study: MPC and mutation frequency. The assay is classed as cell-based, E. coli. Conditions: ≥64 µg mL^−1 Bi(NAC)3.
The subject of assay [11] is MBL-positive bacterial strains. The conditions noted are these: with MER, different MBL-positive strains. As for the experimental part: as §1, §2, §3
The target in assay [12] is T1, NDM-1. It is filed as cell-based. Set-up: endogenous in cells; host or cells: E. coli clinical isolate NDM-HK. Conditions: NDM-HK cultured with 100 µM compound; control 50.1 °C. As for the experimental part: The cellular thermal shift assay was performed according to a standard method. Clinical isolate of NDM-1-positive E. coli (NDM-HK) was cultured overnight in the absence or presence of 100 µM Bi(III) compounds, i.e., CBS, Bi(NAC)3, Bi(NIT)3. The bacterial pellets were harvested and washed with PBS for 4 times. The cell suspensions were aliquoted into PCR tubes and heat treatment was performed at the designated temperature ranging from 40 °C to 70 °C for 3 min in a 96-well thermal cycler. The tubes were cooled immediately at room temperature for another 3 min after heating and the heating procedures were repeated for three cycles. For the cell lysis, the samples were frozen–thawed for two cycles in liquid nitrogen and thermal cycler set at 25 °C. The samples were vortexed gently after each cycle and were centrifuged at 20,000 × g to obtain the supernatant when the second cycle was finished. All the samples were subjected to western blot analysis for detection and quantification of NDM-1 content as described above.
Target sequence in this assay (C7C422 29-270 limits assumed): as the sequence (C7C422 29-270, looked up, species assumed) above

Assay [13] deals with T1, NDM-1. The assay is classed as biochemical. The conditions noted are these: Bi(III) 1.5 µM (as Bi(NIT)3); 0.900 at 0 µM.
Target sequence in this assay (C7C422 29-270, looked up, species assumed): as above
Description: NDM-1 (50 nM) was incubated with Bi(NIT)3 (0.5, 1.0, and 1.5 µM) for 1 h at 25 °C with gentle shaking. The assay was performed in a 96-well microplate reader at 298 K. The final assay buffer contains 50 mM HEPES at pH 7.0, 100 mM NaCl, with MER as the substrate ranging from 10 to 150 µM. Control experiment was also performed in the absence of inhibitors under the same conditions. The Km and Vmax for both the uninhibited and inhibited reactions were obtained by fitting the data into the double reciprocal Lineweaver–Burk plots.
Assay [14] concerns the target NDM-1-C208A (Klebsiella pneumoniae, UniProt C7C422, C208A). Nature of the assay: Bi(III) binding capacity by ICP-MS. As for the experimental part:
To monitor the displacement of Zn(II) by Bi(III), ICP-MS was employed to accurately quantify ^209Bi and ^66Zn contents in various purified NDM-1 samples. Purified Zn-bound-NDM-1 (20 μM) dissolved in trace-metal-free ICP-MS buffer containing 50 mM HEPES, pH 7.0, was incubated with various concentrations of CBS at 25 °C for 5 h with mild shaking. The samples were subsequently dialyzed in ICP-MS buffer to remove unbound-metal ions and were then acidified and subsequently analyzed using an ICP-MS spectrometer (Agilent 7500a, Agilent Technologies, CA, USA) with ^115In as an internal standard for ^209Bi, ^66Zn, and ^34S contents, which are used to quantify protein concentration.

In assay [15] the target is T1, NDM-1. The assay is described as follows: Zinc supplementation assay. It is filed as biochemical. The conditions noted are these: supplementation of 2 molar equivalents of Zn(II); Bi-NDM-1 prepared with CBS. As for the experimental part:
To investigate whether bismuth inhibits the enzyme reversibly, enzyme activities of Bi-NDM-1 and apo-NDM-1 were compared upon the supplementation of Zn(II). Bi-bound NDM-1 (50 nM) was prepared by pre-incubation of apo-bound NDM-1 with CBS for 2 h at 25 °C, followed by removal of unbound Bi(III) and the bound Bi was verified by ICP-MS. The above protein solutions were mixed with ZnSO4 at concentration up to 2 molar equivalents to NDM-1 and 100 µM MER. The change in absorbance at 300 nm was monitored on a Varian Cary 50 UV-visible spectrophotometer at 25 °C for calculation of reaction rates. Reaction rate of apo-NDM-1 with addition of 2 molar equivalents of ZnSO4 was normalized to 1. The metal content of Bi-bound NDM-1 treated with Zn(II) was measured and analyzed by ICP-MS as described in the previous section.
Target sequence in this assay (C7C422 29-270, looked up, species assumed): as above

Sequence of NDM-1-C208A (C7C422 29-270 C208A): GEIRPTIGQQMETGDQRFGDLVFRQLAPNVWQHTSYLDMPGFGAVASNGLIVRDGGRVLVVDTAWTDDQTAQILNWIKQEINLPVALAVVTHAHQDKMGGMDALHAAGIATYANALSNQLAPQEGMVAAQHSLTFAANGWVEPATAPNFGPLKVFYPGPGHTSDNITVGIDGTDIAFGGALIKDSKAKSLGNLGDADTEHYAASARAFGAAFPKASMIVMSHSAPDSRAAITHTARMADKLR

For `CC(=O)N[C@@H](C[S][Bi]([S]C[C@H](NC(C)=O)C(=O)O)[S]C[C@H](NC(C)=O)C(=O)O)C(=O)O` [Bi(NAC)3], the “decrease in the MIC of MER” value in [1] (IMP-4-positive E. coli) came out at 16 fold; in assay [2] (NDM-1-positive E. coli), 32 fold; in [3] (VIM-2-positive E. coli) it was 64 fold. The “MBC of MER in combination with compound at 32 µg mL^-1” value is 2 µg mL^-1 and 2/2 µg mL^-1 in assay [1] (IMP-BL21); 0.5 µg/mL in assay [2] (NDM-HK); 1 µg/mL in [3] (VIM-BL21); 2 µg/mL in assay [4] (NDM-K. pneumonia (NDM-KP)); 0.5 µg mL^-1 and 0.5/0.5 µg mL^-1 in assay [5] (NDM-C. freundii (NDM-CF)). Also, the “MIC of MER in combination with compound at 32 µg mL^-1” value in assay [1] (IMP-BL21) is 2 µg mL^-1 and 2/2 µg mL^-1; in assay [2] (NDM-HK) it was 0.5 µg/mL; in assay [3] (VIM-BL21), 0.5 µg/mL; in assay [4] (NDM-K. pneumonia (NDM-KP)), 1 µg/mL; in assay [5] (NDM-C. freundii (NDM-CF)), 0.5 µg mL^-1 and 0.5/0.5 µg mL^-1. The FICI in assay [1] (IMP-BL21, MER + compound, 256 µg mL^-1 set as MIC of Bi(III)) is on record as 0.125; in assay [3] (VIM-BL21, MER + compound, 256 µg mL^-1 set as MIC of Bi(III)) it was 0.063; in assay [4] (NDM-KP, MER + compound, 256 µg mL^-1 set as MIC of Bi(III)) it was 0.188; in [5] (NDM-CF, MER + compound, 256 µg mL^-1 set as MIC of Bi(III)), 0.188. Also, the “MBC of Bi(III) compound/inhibitor alone” value in assay [2] (NDM-HK) is greater than 256 µg/mL. The “MIC of Bi(III) compound/inhibitor alone” value in [2] (NDM-HK) was 128 µg/mL. Moreover, the “MBC of Bi(III) compound alone” value in [4] (NDM-KP) and in assay [5] (NDM-CF) was greater than 256 µg/mL throughout. Moreover, the “MIC of Bi(III) compound alone” value in [4] (NDM-KP) and in assay [5] (NDM-CF) was 256 µg/mL throughout. Also, the figures for the IC50 in assay [6], in assay [7] and in assay [8] were 1650 ± 600 nM, 2650 ± 570 nM and 2800 ± 790 nM, respectively. In addition, in [9], the “time to eradicate the bacterium completely” value is listed as no more than 6 h. The “MER MPC with Bi(NAC)3” value in assay [10] was found to be 2 fold MIC. Besides, in assay [11], the FICI values was in the range of 0.063 to 0.188. Besides, the “NDM-1 melting temperature, treated group” value in [12] was 47.7 °C.
In the case of `[Bi+3]` [Bi(III)], the “apparent Vmax” value in assay [13] was determined as 0.365 µM/s. Further, the “Bi(III) bound to the mutant” value in assay [14] was “ca. 0.25 molar equivalents”. Further, in assay [15], the “activity restored for Bi-bound NDM-1” value was “about 20%”.
